Reference: paper PMC4336331, “Novel Receptor-Derived Cyclopeptides to Treat Heart Failure Caused by Anti-β1-Adrenoceptor Antibodies in a Human-Analogous Rat Model” (PLoS ONE, 2015)
Where two headings read alike, the source gives them in different places. Peptide text beside a SMILES is read from it.

Assays:
[1] = system: anti-β1EC2-induced heart failure (β1EC2/GST-FP-immunised rats); assay: Left heart catheterisation (haemodynamics), therapy-study; format: in vivo, Lewis/CrlBR rats; settings: LV catheterisation month 20, mean ±SEM
Description: (§1) In brief, n = 76 two months old Lewis/CrlBR rats were either s.c. immunised with 50 μg β1EC2/GST-FP, or n = 38 rats were control-injected with 0.9% NaCl (t = 0). To maintain high anti-β1EC2-titers, all immunised rats were boosted with β1EC2/GST-FP (or 0.9% NaCl) every month over 20 months as previously described. Application of the different linear or cyclic β1-AR peptides (corresponding to the primary AA-sequence of either the first (β1EC1) or the 2nd extra-cellular β1-AR loop (β1EC2)) or the β1-receptor blocker bisoprolol was initiated either 6 weeks after the 1st immunisation (i.e. 15 days after the 1st boost, prevention-study), or 8.5 months after the 1st immunisation (therapy-study).

[2] = system: anti-β1EC2-induced heart failure (β1EC2/GST-FP-immunised rats); assay: Relative organ wet weights and body weight, therapy-study; settings: month 20, mean ±SEM
Description: as §1
After the hearts all other relevant inner organs (e.g., lung, liver, spleen, kidneys, brain, and eyes) were removed, rinsed with ice-cold PBS, weighed, sectioned, and fixed for further histologic analysis.

[3] = system: anti-β1EC2-induced heart failure (β1EC2/GST-FP-immunised rats); settings: therapy-study, end of study, mean ±SEM
Description: as §1
From paraffin-embedded heart preparations cavity- and wall-dimensions were determined by computer-aided analysis of H&E-stained mid-ventricular 2μm-sections as previously described. H&E-stained paraffin-sections also served to quantify damaged and fibrotic cardiac areas (scars). For detection of mast cells, deparaffinised cardiac sections were stained with acidified (pH<2.5) toluidine blue 0.1% (Sigma). The number of toluidine-positive cells was normalized to square millimeter of cardiac tissue. TUNEL-positive cells were quantified in 2μm mid-ventricular paraffin-sections using a TMR Red in Situ Death Detection Kit (Roche, Basel, Switzerland). Only the total number of TUNEL-postive cells/section was determined without further differentiation of the specific apoptotic cell type (e.g., fibroblasts, endothelial cells, cardiomyocytes).

[4] = system: anti-β1EC2-induced heart failure (β1EC2/GST-FP-immunised rats); assay: Echocardiography and catheterisation, cardiomyopathic phenotype, therapy-study; format: in vivo, Lewis/CrlBR rats; settings: echocardiography and catheterisation (Fig. 2G, H; S2 Fig.)
Description: as §1
In brief, the rats were lightly anaestetised (30 mg/kg ketamine-HCl and 5 mg/kg xylazine i.p.), shaved (chest), and placed supine on a special table. M-mode tracings were recorded at baseline (before immunisation), and subsequently every four months in the parasternal long and short axis views according to the guidelines of the American Society for Echocardiography. Pulsed-wave Doppler spectra were recorded from the apical five-chamber view and the velocity-time integral (VTI) of the transaortic flow served to calculate cardiac output (CO [ml/min] = Aortic VTI x (π [LV-outflow tract diameter/2]^2) x bpm).

[5] = system: anti-β1EC2-antibodies; assay: Free anti-β1EC2-titers by ELISA, therapy-study; format: in vivo, Lewis/CrlBR rats; settings: for decline in anti-β1EC2-titers: 1.0 mg/kg i.v. every 4 weeks, irrespective of bisoprolol co-treatment (Fig. 2F)
Description: as §1
(TIF) Click here for additional data file.

[6] = system: anti-β1EC2-induced heart failure (β1EC2/GST-FP-immunised rats); assay: Left heart catheterisation (haemodynamics), prevention-study; format: in vivo, Lewis/CrlBR rats; settings: LV catheterisation month 16, mean ±SEM
Description: as §1

[7] = system: anti-β1EC2-induced heart failure (β1EC2/GST-FP-immunised rats); assay: Heart histology (fibrotic scars, TUNEL, mast cells), therapy-study; format: in vivo, Lewis/CrlBR rats
Excerpt: Fig 3 Histology of rat hearts (therapy-study). (A) Representative H&E-stained 2μm cross-sections of hearts (from the left to the right) from a control rat, an immunised untreated rat, a bisoprolol- and a β1EC2-CP mono-treated rat, and a β1EC2-CP/bisoprolol co-treated rat. (B) Quantification of fibrotic scars in midventricular 2μm-sections (mvhs, mid-ventricular heart-section). Columns ± error bars represent the mean number of fibrotic scars ±SEM per 3 heart sections in the indicated groups. (C) TUNEL-assay with 2μm-mvhs. Columns ± error bars represent mean numbers ±SEM of apoptotic cells (kind of cells not specified) /3 mvhs. (D) qRT-PCR of apical cardiac tissues. Columns ± error bars represent the expression of the indicated pro-fibrotic markers ±SEM in the indicated treatment-groups normalised to controls. (E) Mast cells in 2μm paraffin-mvhs from the indicated treatment-groups; columns ± error bars represent the mean numbers ±SEM of mast cells/mm^2 cardiac tissue. For all parameters shown, differences between the treatment-groups were assessed by […] one way ANOVA and Dunnett`s post-hoc test; *p<0.05; **p<0.001.

[8] = immunised anti-β1EC2-positive rats, from 8.5 months after 1st immunisation peptides 1.0 mg/kg i.v. every 4 weeks, bisoprolol 15 mg/kg/day orally, over 12 months
[9] = non-immunised 0.9% NaCl-injected rats, EC2-CP 1.0 mg/kg i.v. every 4 weeks or bisoprolol 15 mg/kg/day orally over 12 months
[10] = immunised anti-β1EC2-positive rats, from 6 weeks after 1st immunisation EC2-CP 1.0 mg/kg i.v. every 4 weeks or bisoprolol 15 mg/kg/day orally over 12 months

Compound: CC(C)[C@H](NC(=O)[C@H](Cc1ccccc1)NC(=O)[C@H](CC(=O)O)NC(=O)[C@H](CS)NC(=O)[C@H](CS)NC(=O)[C@H](CCCCN)NC(=O)[C@@H]1CCCN1C(=O)[C@H](CC(=O)O)NC(=O)[C@H](CC(N)=O)NC(=O)[C@H](Cc1ccc(O)cc1)NC(=O)[C@H](CS)NC(=O)[C@H](CCCNC(=N)N)NC(=O)[C@H](CCCNC(=N)N)NC(=O)[C@H](C)NC(=O)[C@H](CCC(=O)O)NC(=O)[C@H](CC(=O)O)NC(=O)[C@H](CO)NC(=O)[C@H](CCC(=O)O)NC(=O)[C@H](C)NC(=O)[C@H](CCCNC(=N)N)NC(=O)[C@H](C)N)C(=O)N[C@H](C(=O)N[C@@H](CC(N)=O)C(=O)N[C@@H](CCCNC(=N)N)C(=O)NCC(N)=O)[C@@H](C)O [β1EC2-Lin] (H-ARAESDEARRCYNDPKCCDFVTNRG-NH2; N-terminus and C-terminus assumed)
- -dP/dt (relaxation) [1, 8]: 4857 ±157 mmHg/s
- HF (heart frequence) [1, 8]: 210 ±6 bpm
- LVEDP (LV end-diastolic pressure) [1, 8]: 14.5 ±1.2 mmHg
- LVSP (maximal systolic LV-pressure) [1, 8]: 116 ±4 mmHg
- Heart, relative (wet) weight [2, 8]: 2.88 ± 0.24 mg/g
- Kidney L, relative (wet) weight [2, 8]: 2.32 ± 0.14 mg/g
- Kidney R, relative (wet) weight [2, 8]: 2.36 ± 0.20 mg/g
- Liver, relative (wet) weight [2, 8]: 22.64 ± 0.59 mg/g
- Lung, relative (wet) weight [2, 8]: 2.77 ± 0.12 mg/g
- Spleen, relative (wet) weight [2, 8]: 1.49 ± 0.09 mg/g
- Weight (body weight) [2, 8]: 598 ± 38 g
- IVS (thickness of the inter-ventricular septum) [3, 8]: 1.5 ±0.1 mm
- LVA (total LV-area) [3, 8]: 71.2 ±3.5 mm2
- LVCA (LV-cavity area) [3, 8]: 32.7 ±1.3 mm2
- LVWA (LV wall area) [3, 8]: 38.5 ±2.4 mm2
- PW (posterior wall thickness) [3, 8]: 1.6 ±0.1 mm
- cardiomyopathic phenotype, in words [4]: failed to elicit any cardiopotective effects
- effect on anti-β1EC2-titers, in words ([5]; peptides 1.0 mg/kg/month i.v., bisoprolol 15 mg/kg/day orally (S1 Fig., Fig. 2F)): only negligible effects

Compound: CC(C)[C@@H]1NC(=O)[C@H](Cc2ccccc2)NC(=O)[C@H](CC(=O)O)NC(=O)[C@H](CS)NC(=O)[C@H](CS)NC(=O)[C@H](CCCCN)NC(=O)[C@@H]2CCCN2C(=O)[C@H](CC(=O)O)NC(=O)[C@H](CC(N)=O)NC(=O)[C@H](Cc2ccc(O)cc2)NC(=O)[C@H](CS)NC(=O)[C@H](CCCNC(=N)N)NC(=O)[C@H](CCCNC(=N)N)NC(=O)[C@H](C)NC(=O)[C@H](CCC(=O)O)NC(=O)[C@H](CC(=O)O)NC(=O)[C@H](CO)NC(=O)[C@H](CCC(=O)O)NC(=O)[C@H](C)NC(=O)[C@H](CCCNC(=N)N)NC(=O)[C@H](C)NC(=O)[C@H](CCC(N)=O)NC(=O)CNC(=O)[C@H](CCCNC(=N)N)NC(=O)[C@H](CC(N)=O)NC(=O)[C@H]([C@@H](C)O)NC1=O [β1EC2-CP] (cyclo(AESDEARRCYNDPKCCDFVTNRGQAR))
- -dP/dt (relaxation) [1, 8]: 5228 ±166 mmHg/s
- HF (heart frequence) [1, 8]: 217 ±3 bpm
- LVEDP (LV end-diastolic pressure) [1, 8]: 10.0 ± 1.0 mmHg
- LVSP (maximal systolic LV-pressure) [1, 8]: 126 ±4 mmHg
- -dP/dt (relaxation) [1, 9]: 5502 ±248 mmHg/s
- HF (heart frequence) [1, 9]: 221 ±7 bpm
- LVEDP (LV end-diastolic pressure) [1, 9]: 9.2 ± 1.1 mmHg
- LVSP (maximal systolic LV-pressure) [1, 9]: 121 ±8 mmHg
- Heart, relative (wet) weight [2, 8]: 2.20 ± 0.09 mg/g
- Kidney L, relative (wet) weight [2, 8]: 2.29 ± 0.06 mg/g
- Kidney R, relative (wet) weight [2, 8]: 2.25 ± 0.05 mg/g
- Liver, relative (wet) weight [2, 8]: 19.83 ± 0.50 mg/g
- Lung, relative (wet) weight [2, 8]: 2.26 ± 0.16 mg/g
- Spleen, relative (wet) weight [2, 8]: 1.23 ± 0.04 mg/g
- Weight (body weight) [2, 8]: 673 ± 12 g
- Heart, relative (wet) weight [2, 9]: 2.15 ± 0.08 mg/g
- Kidney L, relative (wet) weight [2, 9]: 2.19 ± 0.08 mg/g
- Kidney R, relative (wet) weight [2, 9]: 2.22 ± 0.08 mg/g
- Liver, relative (wet) weight [2, 9]: 18.9 ± 0.55 mg/g
- Lung, relative (wet) weight [2, 9]: 2.08 ± 0.07 mg/g
- Spleen, relative (wet) weight [2, 9]: 1.18 ± 0.03 mg/g
- Weight (body weight) [2, 9]: 695 ± 27 g
- IVS (thickness of the inter-ventricular septum) [3, 8]: 1.7 ±0.1 mm
- LVA (total LV-area) [3, 8]: 65.2 ±2.5 mm2
- LVCA (LV-cavity area) [3, 8]: 25.6 ±1.0 mm2
- LVWA (LV wall area) [3, 8]: 39.6 ±1.7 mm2
- PW (posterior wall thickness) [3, 8]: 1.8 ±0.1 mm
- IVS (thickness of the inter-ventricular septum) [3, 9]: 1.7 ±0.1 mm
- LVA (total LV-area) [3, 9]: 57.4 ±0.7 mm2
- LVCA (LV-cavity area) [3, 9]: 21.3 ±0.1 mm2
- LVWA (LV wall area) [3, 9]: 36.1 ±0.7 mm2
- PW (posterior wall thickness) [3, 9]: 1.9 ±0.1 mm
- cardiomyopathic phenotype, in words [4]: almost fully reversed
- -dP/dt (relaxation) [6, 10]: 5887 ±93 mmHg/s
- HF (heart frequence) [6, 10]: 226 ±5 bpm
- LVEDP (LV end-diastolic pressure) [6, 10]: 10.4 ±0.6 mmHg
- LVSP (maximal systolic LV-pressure) [6, 10]: 127 ±4 mmHg
- -dP/dt (relaxation) [6, 9]: 5986 ±288 mmHg/s
- HF (heart frequence) [6, 9]: 232 ±7 bpm
- LVEDP (LV end-diastolic pressure) [6, 9]: 10.1 ±1.4 mmHg
- LVSP (maximal systolic LV-pressure) [6, 9]: 135 ±7 mmHg
- number of myocardial fibrotic scars, in words ([7]; midventricular 2μm-sections (Fig. 3A and B)): returned to normal levels
- TUNEL-positive apopotic cells, in words ([7]; midventricular 2μm-sections (Fig. 3C)): returned to normal levels
- increase in cardiac mast cells, in words ([7]; toluidine blue, mono- or co-treatment (Fig. 3E)): reversed to control levels
- decline in anti-β1EC2-titers ([5]; after 4–5 injections): > 90%
- decline in anti-β1EC2-titers ([5]; after two injections): > 70%
- steady state antibody-levels in % of the titers at initiation of therapy ([5]; despite monthly antigen-boosts): less than 15%
